For experiment [1], the target named is T1, SARM1 protein in iSARM1 (HEK293) cells (Homo sapiens, UniProt Q6SZW1).
T1 construct: The full-length SARM1 was synthesized into the pUC57 plasmid by WZ Biosciences Inc., and PCR was performed using pUC57-SARM1 as a DNA template
T1 sequence (Q6SZW1 28-724): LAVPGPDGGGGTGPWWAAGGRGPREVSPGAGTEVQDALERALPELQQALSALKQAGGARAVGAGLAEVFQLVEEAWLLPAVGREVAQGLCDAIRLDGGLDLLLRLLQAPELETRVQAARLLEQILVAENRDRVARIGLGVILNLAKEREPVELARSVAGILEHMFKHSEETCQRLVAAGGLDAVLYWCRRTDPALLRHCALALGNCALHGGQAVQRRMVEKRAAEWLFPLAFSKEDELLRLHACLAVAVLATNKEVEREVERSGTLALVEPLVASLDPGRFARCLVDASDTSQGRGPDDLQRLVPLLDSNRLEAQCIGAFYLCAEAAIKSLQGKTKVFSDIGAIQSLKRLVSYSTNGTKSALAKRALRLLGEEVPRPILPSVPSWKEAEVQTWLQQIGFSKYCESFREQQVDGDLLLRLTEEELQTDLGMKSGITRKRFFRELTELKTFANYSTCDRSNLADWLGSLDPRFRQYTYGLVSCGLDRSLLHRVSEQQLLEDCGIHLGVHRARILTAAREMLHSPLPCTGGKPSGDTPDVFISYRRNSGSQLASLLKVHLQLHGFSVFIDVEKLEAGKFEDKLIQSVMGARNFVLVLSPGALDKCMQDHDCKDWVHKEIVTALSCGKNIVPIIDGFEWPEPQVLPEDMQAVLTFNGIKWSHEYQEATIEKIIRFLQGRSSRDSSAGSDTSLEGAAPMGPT
The experiment can be described thus: Inhibitory activity in inducible SARM1 overexpressing cell line, intracellular cADPR level. The settings on record: activator CZ-48 100 μM, cADPR content. It counts as cell-based. On the procedure:
In this example, the gene sequence of SARM1 was amplified using PCR, and constructed into pInducer20-neo plasmid. pInducer20-SARM1 virus was packaged in a liposome and infected HEK293 to obtain an inducible SARM1-overexpressing cell line, which was labeled as iSARM1 (HEK293). The specific preparation was as follows:
First, a 96-well culture plate was treated with 0.05 mg/ml polylysine for 5 minutes and washed once with PBS. 3×10^4 iSARM1 (HEK293) cells were plated into the 96-well plate and cultured overnight in a 37° C. and 5% incubator. The next day, the cells were added with an inhibitor with a final concentration of 50 μM, incubated in the incubator for 1.5 hours, added with activator CZ-48 with a final concentration of 100 μM, and incubated for 16 hours. Meanwhile, the cells without adding CZ-48 or without adding drug were set as control group. Finally, the intracellular cADPR level was detected to represent the activity of SARM1, and the inhibition rate of SARM1 in cells by 50 μM inhibitor was calculated.
The cADPR measurement was performed as follows. First, the cells were washed once with PBS, and added with 150 μl of pre-cooled 0.6M perchloric acid (PCA) to quickly lyse the cells and precipitate the protein. The PCA supernatant was transferred to a 1.5 ml centrifuge tube. The protein in the culture medium was dissolved again with 100 μl of 1M NaOH. The supernatant was added with 0.5 ml of organic reagent mixture (trioctylamine:chloroform=1:3) to extract PCA from water. After sufficient shaking, the mixture was centrifuged at 12,000 rpm for 10 minutes. The solution was divided into 3 layers: the upper aqueous phase, containing the small molecules of interest; the lower organic phase, in which PCA was dissolved; and a thin protein layer between the upper and lower layers. The upper layer was transferred to a new centrifuge tube, added with 1M Tris-Mg at a ratio of 1:100 (1M Tris (pH 8.0): 1M MgCl2=9:1), added with NADase at a ratio of 1:250, and treated at 37° C. overnight to remove NAD^+ from the mixed solution. After the treatment was completed, the mixed solution was filtered using Millipore's 10 K 96-well filter plate to remove NADase.
The cADPR content in the solution was determined through Cycling analysis method. The specific steps were as follows: 20 μl of the sample to be tested or the cADPR standard was taken and added to a 96-well opaque white plate. Preparation of reaction solution: 9.6 ml of PBS (pH 7.4), 200 μl of ethanol, 150 μl of 1 mg/ml AD, 10 μl of 10 mM FMN, 5 μl of 18 mg/ml Diaphorase, 10 μl of 10 mM Resazurin, and 100 μl of 1M Nam. Half of the reaction solution was divided and added with 0.2 μg/ml cyclase. The reaction solution without adding cyclase was used as control experiment. Each sample was divided into two groups, 3 replicates in each group. The reaction solutions containing or not containing cyclase were added to each group to perform the reaction. The reaction kinetic curve within 30 minutes was recorded (Ex:Em=544/599). The average slope of the reaction was calculated. Conversion was performed according to cADPR standard to obtain the accurate cADPR content. A curve of intracellular cADPR content vs corresponding inhibitor concentration was plotted. The half inhibitory concentration of the inhibitor was calculated.

The next experiment deals with T2, dN-SARM1 protein (Homo sapiens, UniProt Q6SZW1).
T2 construct: the N-terminal mitochondrial localization signal peptide of SARM1 was removed
T2 sequence (Q6SZW1 28-724): T1 sequence (Q6SZW1 28-724)
Nature of the experiment: In vitro biochemical assay for inhibiting SARM1 enzymatic activity (IC50), PC6 fluorescence method. The settings on record: 50 μM NAD, 50 μM PC6, 50 μM NMN activator. In outline:
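dN-SARM1 (0.05 μg/ml, 50 mM Tris-HCl pH 7.5) preincubated 10 min at room temperature with compound in serial dilution from 200 μM. Reaction started with final 50 μM NAD, 50 μM PC6 substrate and 50 μM NMN activator, 30 min at room temperature. PC6 fluorescence (ex 390/em 520 nm) rate gives activity; IC50 derived.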

Turning to `CN(C(=O)OC(C)(C)C)c1ccc2ncc(-c3cccc(NC(=O)COCCOCC(=O)Nc4cccc(-c5cnc6ccc(N(C)C(=O)OC(C)(C)C)cn56)c4)c3)n2c1` [Compound 116, ((((((2,2′-(ethane-1,2-diylbis(oxy))bis(acetyl))bis(azadialkyl))bis(31-phenylene))bis(imidazo[1,2-a]pyridin-3,6-diyl))bis(tert butylmethylcarbamate)], the EC50 in experiment [1] was < 1000 nM. Besides, at dN-SARM1 protein, the IC50 was < 1000 nM.

`Cc1ncsc1-c1ccc(CNC(=O)[C@@H]2C[C@@H](O)CN2C(=O)[C@@H](NC(=O)COCCOCCOCC(=O)N(C)c2ccc3ncc(-c4ccccc4Cl)n3c2)C(C)(C)C)cc1` [Compound 118, (2S,4R)-1-((S)-15-(tert-butyl)-2-(3-(2-chlorophenyl)imidazo[1,2-a]pyridin-6-yl)-3,13-dioxo-5,8,11-trioxa-2,14-diazahexadecane-16-acyl)-4-hydroxy-N-(4-(4-methylthiazol-5-yl)benzyl) pyrrolidin-2-carboxamide]: the EC50 in experiment [1] was < 1000 nM. Further, the IC50 against dN-SARM1 protein is 1000 to 10000 nM.

For `Cc1ncsc1-c1ccc(CNC(=O)[C@@H]2C[C@@H](O)CN2C(=O)[C@@H](NC(=O)COCCOCCOCC(=O)Nc2cccc(-c3cnc4ccc(N(C)C(=O)OC(C)(C)C)cn34)c2)C(C)(C)C)cc1` [Compound 119, Tert-butyl (3-(3-((S)-13-((2S,4R)-4-hydroxy-2-((4-(4-methylthiazol-5-yl)benzyl)carbamoyl)pyrrolidin-1-carbonyl)-14,14-dimethyl-11-oxo-3,6,9-trioxa-12-azaglutaramide)phenyl)imidazo[1,2-a]pyridin-6-yl)(methyl)carbamate], in experiment [1], the EC50 was 1000 to 10000 nM. Also, the IC50 on dN-SARM1 protein was < 1000 nM.

`CN(C(=O)OC(C)(C)C)c1ccc2ncc(-c3cccc(NC(=O)COCCOCCOCC(=O)Nc4cccc(-c5cnc6ccc(N(C)C(=O)OC(C)(C)C)cn56)c4)c3)n2c1` [Compound 121, ((((2,2′-((oxybis(ethane-2,1-diyl))bis(oxy))bis(acetyl))bis(azadiyl))bis(3,1-phylene))bis(imidazo[1,2-a]pyridin-3,6-diyl))bis(tert-butyl (methyl)carbamate)]: the EC50 in experiment [1] is < 1000 nM. Moreover, the IC50 against dN-SARM1 protein was < 1000 nM.

`CN(C(=O)OC(C)(C)C)c1ccc2ncc(-c3cccc(OCCOCc4ccccc4)c3)n2c1` [Compound 156] displayed a half-maximal effective concentration (EC50) in experiment [1] of 1000 to 10000 nM. In addition, the IC50 at dN-SARM1 protein lay within 1000 to 10000 nM.

For the molecule `CNc1ccc2ncc(-c3cccc(OCCOCc4ccccc4)c3)n2c1` [Compound 157], the EC50 in experiment [1] lay in the range of 1000 to 10000 nM. The same molecule returned an IC50 against dN-SARM1 protein of 1000 to 10000 nM.

`CN(C(=O)OC(C)(C)C)c1ccc2ncc(-c3cccc(N(C)C(=O)C4CCOCC4)c3)n2c1` [Compound 158, tert-butyl methyl (3-(3-(N-methyltetrahydro-2H-pyran-4-carboxamido)phenyl)imidazo[1,2-a]pyridin-6-yl)carbamate]: the EC50 in experiment [1] was < 1000 nM. The IC50 against dN-SARM1 protein lay within 1000 to 10000 nM.

In turn, `CNc1ccc2ncc(-c3cccc(N(C)C(=O)C4CCOCC4)c3)n2c1` [Compound 159] came in with an EC50 in experiment [1] of 1000 to 10000 nM. Moreover, the IC50 on dN-SARM1 protein is < 1000 nM.

Consider `CN(C(=O)COC1CCOC1)c1cccc(-c2cnc3ccc(N(C)C(=O)OC(C)(C)C)cn23)c1` (stereo not shown) [Compound 160], for which, in experiment [1], the EC50 was < 1000 nM. Moreover, at dN-SARM1 protein, the IC50 was < 1000 nM.

The molecule `CN(C(=O)OC(C)(C)C)c1ccc2ncc(-c3cc4cc[nH]c4cn3)n2c1` [Compound 161, tert-butyl (3-(1H-pyrrolo[2,3-c]pyridin-5-yl)imidazo[1,2-a]pyridin-6-yl)(methyl)carbamate] had an EC50 in experiment [1] of 1000 to 10000 nM. Besides, on dN-SARM1 protein, the IC50 is < 1000 nM.

For the molecule `CNc1ccc2ncc(-c3cc4cc[nH]c4cn3)n2c1` [Compound 162, N-methyl-3-(1H-pyrrolo[2,3-c]pyridin-5-yl)imidazo[1,2-a]pyridin-6-amine], the EC50 in experiment [1] is < 1000 nM. Further, the IC50 against dN-SARM1 protein is < 1000 nM.

As for `CN(C(=O)OC(C)(C)C)c1ccc2ncc(-c3cccc4c3C(=O)NC4)n2c1` [Compound 164], in experiment [1], the EC50 lay within 1000 to 10000 nM. Besides, the 50% inhibitory concentration (IC50) against dN-SARM1 protein is < 1000 nM.

As for `CN(C(=O)OC(C)(C)C)c1ccc2ncc(-c3cccc4ncsc34)n2c1` [Compound 167], in experiment [1], the EC50 was < 1000 nM. Further, the IC50 on dN-SARM1 protein is < 1000 nM.

In turn, `CN(C(=O)OC(C)(C)C)c1ccc2ncc(-c3nn4ccnc4s3)n2c1` [Compound 168] displayed an EC50 in experiment [1] of 1000 to 10000 nM. Moreover, the IC50 at dN-SARM1 protein was < 1000 nM.

Consider `CN(C(=O)OC(C)(C)C)c1ccc2ncc(-c3ccn4ccnc4c3)n2c1` [Compound 169], for which, in experiment [1], the EC50 was 1000 to 10000 nM. The IC50 at dN-SARM1 protein is < 1000 nM.

For the molecule `CNc1ccc2ncc(-c3cccc(NC(=O)C4CCOCC4)n3)n2c1` [Compound 171], the EC50 in experiment [1] is < 1000 nM. Moreover, the IC50 on dN-SARM1 protein was < 1000 nM.

In experiment [1], `CN(C(=O)OC(C)(C)C)c1ccc2ncc(-c3ccc(NC(=O)c4ccccc4)s3)n2c1` [Compound 181] yielded an EC50 of 1000 to 10000 nM. Moreover, on dN-SARM1 protein, the IC50 is 1000 to 10000 nM.

In turn, `CNc1ccc2ncc(-c3nccc4[nH]ccc34)n2c1` [Compound 183] displayed an EC50 in experiment [1] of 1000 to 10000 nM. Moreover, the IC50 at dN-SARM1 protein was in the range of 1000 to 10000 nM.

Molecule `CNc1ccc2ncc(-c3nn4ccnc4s3)n2c1` [Compound 185] came in with an EC50 in experiment [1] of 1000 to 10000 nM. The molecule further came in with an IC50 at dN-SARM1 protein of 1000 to 10000 nM.

As for `Ic1cnc2ccc(-n3cccn3)cn12` [Compound 201, 3-iodo-6-(1H-pyrazol-1-yl)imidazo[1,2-a]pyridine], the EC50 in experiment [1] was < 1000 nM. Moreover, the IC50 against dN-SARM1 protein lay within 1000 to 10000 nM.

Take `O=C1CCCN1c1ccc2ncc(-c3cccc4[nH]ccc34)n2c1` [Compound 205]: the EC50 in experiment [1] is < 1000 nM. This molecule gave an IC50 at dN-SARM1 protein of 1000 to 10000 nM.

With `C=CCN(C(=O)OC(C)(C)C)c1ccc2ncc(-c3cccc(N)c3)n2c1` [Compound 211, tert-butyl allyl(3-(3-aminophenyl)imidazo[1,2-a]pyridin-6-yl)carbamate], in experiment [1], the EC50 is < 1000 nM. On dN-SARM1 protein, this molecule displayed an IC50 of 1000 to 10000 nM.

For the molecule `CC(C)(C)OC(=O)N(C/C=C/c1cccc(N)c1)c1ccc2ncc(-c3cccc(N)c3)n2c1` [Compound 212, tert-butyl (E)-(3-(3-aminophenyl)allyl)(3-(3-aminophenyl)imidazo[1,2-a]pyridin-6-yl)carbamate], in experiment [1], the EC50 was < 1000 nM. The IC50 against dN-SARM1 protein was in the range of 1000 to 10000 nM.

The values above are taken from patent publication US20240368168A1, “SARM1 ENZYME ACTIVITY INHIBITOR AND APPLICATION THEREOF” (ARTIVILA BIOPHARMA, priority 2021, published 2024).
